{
  "source": "paper PMC11640089",
  "about": "“JRM-28, a Novel HDAC2 Inhibitor, Upregulates Plasticity-Associated Proteins in Hippocampal Neurons and Enhances Morphological Plasticity via Activation of CREB: Implications for Alzheimer’s Disease” (Cells, 2024)",
  "key": {"HDAC3": {"target": "T1, HDAC3 (Homo sapiens, UniProt O15379)", "T1 construct": "purchased BPS Bioscience 50003", "T1 sequence (O15379 whole entry)": "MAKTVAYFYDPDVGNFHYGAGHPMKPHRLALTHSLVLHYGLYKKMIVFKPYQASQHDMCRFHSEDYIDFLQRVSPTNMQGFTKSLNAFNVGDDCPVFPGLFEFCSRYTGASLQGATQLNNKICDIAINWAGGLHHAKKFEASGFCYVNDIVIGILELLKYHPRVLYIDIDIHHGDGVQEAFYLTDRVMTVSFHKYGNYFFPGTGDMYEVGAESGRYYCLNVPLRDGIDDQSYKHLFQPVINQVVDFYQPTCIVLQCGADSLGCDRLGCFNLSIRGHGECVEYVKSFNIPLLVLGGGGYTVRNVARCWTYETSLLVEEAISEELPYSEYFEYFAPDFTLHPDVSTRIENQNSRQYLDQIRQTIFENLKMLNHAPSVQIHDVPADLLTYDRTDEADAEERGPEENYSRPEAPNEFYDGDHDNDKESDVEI", "T1 sequence (Q9Y618 395-489 partner limits assumed)": "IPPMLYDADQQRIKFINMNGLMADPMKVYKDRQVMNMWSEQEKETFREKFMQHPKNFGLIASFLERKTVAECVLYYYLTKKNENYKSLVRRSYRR", "experiment": "Fluorimetric HDAC inhibition assay, HDAC3", "type": "biochemical", "conditions": "reduced with DTT", "protocol": "(§1) The inhibition of HDAC1, 2, 3, and 6 by JRM-28 was fluorometrically measured using the HDAC Fluorogenic Assay Kit (Catalog# 50034) by BPS bioscience. Purified recombinant human HDAC1 (Cat# 50051), HDAC3 (Cat# 50003), and HDAC6 (Cat# 50056) were also obtained from BPS Bioscience. The enzyme inhibition assay was performed according to the manufacturer’s protocol. […] Purified recombinant HDAC2 (supplied with the fluorogenic kit) was diluted to 6 ng/µL (5 µL/well with the supplied HDAC assay buffer). HDAC 1, 3, and 6 were also diluted to the optimized concentration (5 µL/well) with the HDAC assay buffer. The activity of JRM-28 was measured along with DTT control and DMSO as blank. After adding 5 µL of the diluted HDAC enzymes in designated wells, the 96-well plate (supplied with the kit) was incubated at 37 °C. Then, the reaction was initiated by adding 5 µL of diluted HDAC substrate to each well, followed by another incubation at 37 °C for 30 min. Next, 50 µL of the developer reagent was added to each well and incubated at room temperature for another 15 min. Finally, fluorescence was measured by a microplate absorbance spectrophotometer (PerkinElmer Enspire 2300 Multilabel Multimode Microplate Reader) with an excitation at λ = 485 nm and detection at λ = 528 nm."}, "CREB": {"test_system": "CREB", "experiment": "CREB family expression (PCR array, RT-PCR, immunoblot) in SHSY5Y cells", "type": "cell-based, human", "protocol": "Total RNA was isolated from SHSY5Y neurons using Gene JET RNA Purification Kit (Thermofisher Scientific; Cat #K0731) following the manufacturer’s protocol. RNA was converted to cDNA using the GoScript™ Reverse Transcriptase kit (Promega, Cat # A5001). Semi-quantitative RT-PCR was carried out as described earlier using an RT-PCR kit from Promega (Cat# M7502). Briefly, 1 µg of total RNA was reverse-transcribed using oligo(dT)12–18 as a primer and MMLV reverse transcriptase in a 20 µL reaction mixture. The resulting cDNA was diluted by nuclease-free H2O in a ratio of 1:2, and diluted cDNA was amplified using the following primers (Table 2).\nImmunoblot analysis was carried out as described earlier. Briefly, SHSY5Y neuronal cell homogenates were electrophoresed by 4–12% Tris-Glycine gradient gel, proteins were transferred onto a 0.45 μm nitrocellulose membrane, and the protein band was visualized with Odyssey Sa infrared scanner after immunolabeling with primary antibodies followed by infrared fluorophore-tagged secondary antibody (Licor Biosciences, Lincoln, NE, USA)."}, "SHSY5Y cells": {"test_system": "SHSY5Y cells", "experiment": "TUNEL assay", "type": "cell-based, human", "conditions": "24 h, in the presence of DTT", "protocol": "To assess the effect of JRM-28 on apoptosis in SHS5Y cells, a total of 3 × 10^5 cells suspended in […] of complete neurobasal medium was distributed in each well of a poly-D-lysine-coated eight-well Chamber Slide. After 48 h, cells were treated with 2, 5, 10, 20, 30, and 50 μM of JRM-28 under serum-free conditions and then incubated for an additional 24 h. The TUNEL activity was measured by colorimetric microscopy as directed in the protocol described in DeadEnd™ Colorimetric TUNEL System (Promega, Madison, WI, USA). Hematoxylin staining was adopted to counterstain the slide."}, "HDAC1": {"target": "T2, HDAC1 (Homo sapiens, UniProt Q13547)", "T2 construct": "purchased BPS Bioscience 50051", "experiment": "Fluorimetric HDAC inhibition assay, HDAC1", "type": "biochemical", "conditions": "reduced with DTT", "protocol": "as §1"}, "iPSC-derived AD neurons": {"test_system": "iPSC-derived AD neurons", "experiment": "Dual immunofluorescence in iPSC-derived AD neurons (A246E psen1)", "type": "cell-based, human", "protocol": "Primary neuronal cell culture was performed based on a protocol approved by the Institutional Animal Care and Use Committee (IACUC) of the University of Wisconsin-Milwaukee, Milwaukee, WI-53211, and by the guidelines set by the National Institute of Health. Embryonic day 18 (E18) fetuses were harvested, and hippocampal tissue was dissected from brains and then processed for single cell culture in poly-D-lysine-coated plates, as discussed elsewhere. Neuronal cells were maintained with B-27^TM-plus-supplemented complete neurobasal media for 7–10 days until fully differentiated. After that, the treatment with JRM-28 was performed. SHSY5Y cells were grown, maintained, and passaged with complete DMEM media (a bottle of DMEM supplemented with 10% FBS, 2 mM L-glutamine, and 100 units/mL antibiotics); otherwise, for neuronal differentiation study, SHSY5Y was seeded with complete neurobasal medium. For making AD neurons, commercially purchased (Axol Bioscience Ltd.) A246E psen1 neural stem cells (NSCs) were maintained with KnockOut^TM DMEM/F12 media supplemented with StemPro^TM Neural Supplement, bFGF, EGF, 2 mM GlutMAX^TM supplement, and 10 mL/L antibiotic-antimycotic solution. These […] NSCs were grown in a […] cell culture flask coated with Geltrex^TM matrix until fully confluent and then detached by Accutase, centrifuged, washed, and plated in a poly-D-lysine-coated plate supplemented with complete neurobasal media for neuronal differentiation. After one week, when neurons were differentiated, JRM-28 treatment was conducted.\nImmunofluorescence analysis was performed as described earlier. Briefly, cells cultured on coverslip contained in six-well plates (Lab-Tek II) were fixed with 4% paraformaldehyde for 20 min followed by two rinses in TBST. Samples were incubated in a 1:1 solution of TBST and blocking buffer containing rabbit anti-NR2A (1:250), anti-GluR1 (1:250), ant-HDAC2 (1:250), anti-CREB (1:250), and anti-MAP2 (1:250) for 2 h at 37 °C. After three washes in PBST (15 min each), slides were further incubated with FIT-C and TRIT-C-conjugated secondary antibodies. For negative controls, a set of culture slides was incubated under similar conditions with secondary antibodies and without the primary antibodies (Table 3). The samples were mounted and observed under an Accuscope fluorescent microscope. The images were captured and merged in CaptaVision^TM imaging software."}},
  "data": [
    {"compound": "CN(C(=O)CC(O)/C=C/CCSS(=O)(=O)CC/C=C/C(O)CC(=O)N(C)c1ccccc1)c1ccccc1", "note": "(stereo not drawn) [JRM-28, S-((E)-5-hydroxy-7-(methyl(phenyl)amino)-7-oxohept-3-en-1-yl) (E)-5-hydroxy-7-(methyl(phenyl)amino)-7-oxohept-3-ene-1-sulfonothioate]", "values": [
      {"measurement": "IC50", "setting": "HDAC3", "result": 279, "unit": "nM"},
      {"measurement": "Hill coefficient HDAC3 (fluorimetric)", "setting": "HDAC3; listed as JRM-28 (JRM-28a+28b)", "result": "−4.663"},
      {"measurement": "CREB and CREB-dependent gene expression (RT2 Profiler PCR Array)", "setting": "CREB; 5 µM", "result": "strongly upregulated the expressions of the creb gene and 37 other CREB-dependent genes"},
      {"measurement": "creb mRNA expression (semi-quantitative RT-PCR)", "setting": "CREB; 5 µM", "result": "upregulated the mRNA expression of creb"},
      {"measurement": "crem mRNA expression (semi-quantitative RT-PCR)", "setting": "CREB; 2 and 5 µM", "result": "failed to upregulate the expression of crem"},
      {"measurement": "CREB protein expression (immunoblot)", "setting": "CREB; increasing concentrations", "result": "upregulated the expression of CREB protein"},
      {"measurement": "TUNEL cytotoxicity", "setting": "SHSY5Y cells; 20 µM", "result": "caused nuclear condensation"},
      {"measurement": "TUNEL cytotoxicity", "setting": "SHSY5Y cells; 30 µM", "result": "induced significant cell death"},
      {"measurement": "TUNEL cytotoxicity", "setting": "SHSY5Y cells; 50 µM", "result": "induced significant cell death"},
      {"measurement": "TUNEL cytotoxicity", "setting": "SHSY5Y cells; lower doses up to 10 µM", "result": "did not induce any cell death"},
      {"measurement": "IC50", "setting": "HDAC1", "result": 351, "unit": "nM"},
      {"measurement": "Hill coefficient HDAC1 (fluorimetric)", "setting": "HDAC1; listed as JRM-28 (JRM-28a+28b)", "result": "−4.582"},
      {"measurement": "expressions of ionotropic glutamate receptors (NR2A, GluR1)", "setting": "iPSC-derived AD neurons; 5 µM", "result": "augmented the expressions of ionotropic glutamate receptors"},
      {"measurement": "length of MAP2-ir basal dendrites", "setting": "iPSC-derived AD neurons; 5 µM", "result": "increase the length of MAP2-ir basal dendrites"},
      {"measurement": "CREB expression (dual IF)", "setting": "iPSC-derived AD neurons; 5 μM, 24 h (legend: 48 h)", "result": "strong upregulation of CREB"},
      {"measurement": "HDAC2 expression (dual IF)", "setting": "iPSC-derived AD neurons; 5 μM, 24 h (legend: 48 h)", "result": "significant downregulation of HDAC2"}
    ]}
  ]
}
